Measurements as given in article PMC10584170, “Machine learning-based phenotypic imaging to characterise the targetable biology of Plasmodium falciparum male gametocytes for the development of transmission-blocking antimalarials” (PLOS Pathogens, 2023).
Like-named read-outs stand apart in the source and are kept apart here.

Experiments:
[1] = system: P. falciparum male gametocytes; assay: P. falciparum Dual Gamete Formation Assay (PfDGFA), male readout (exflagellation); type: cell-based, Plasmodium falciparum NF54; conditions: for Selectivity Ratio M: HepG2 Tox50 versus male IC50; for Average inhibition male (%) / % inhibition male (individual replicates) R1 / % inhibition male (individual replicates) R3 / % inhibition male (individual replicates) R4 / inhibition at 2 µM: 24h preincubation with gametocytes; for HitlevelM: number of replicates with >50% inhibition in the male readout
Summary of the method: (§1)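 First, day-14 P. falciparum NF54 gametocytes receive compound for 24 h at 37°C in 1% O2/3% CO2. Next, ookinete medium with Cy3 anti-Pfs25 triggers gametogenesis at 28°C and male exflagellation is imaged. Finally, after 24 h in the dark, Cy3-labelled females are imaged.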

[2] = system: P. falciparum female gametocytes; assay: P. falciparum Dual Gamete Formation Assay (PfDGFA), female readout (Pfs25-positive female gametes); type: cell-based, Plasmodium falciparum NF54; conditions: for Selectivity ratio F: HepG2 Tox50 versus female IC50; for Average inhibition female (%) / % inhibition female (individual replicates) R1 / % inhibition female (individual replicates) R3 / % inhibition female (individual replicates) R4 / inhibition at 2 µM: 24h preincubation with gametocytes; for HitlevelF: number of replicates with >50% inhibition in the female readout
Summary of the method: as §1

[3] = system: HepG2 cells; assay: HepG2 cytotoxicity counter-screen; conditions: for Tox50: cytotoxic activity against HepG2 cells; for Mean TOX: mean of the HepG2 TOX50 values
[4] = PfDGFA at 2µM, average of replicates
[5] = PfDGFA, 24 h incubation with gametocytes before induction, exflagellation readout, read-out: Male IC50
[6] = PfDGFA, 24 h incubation with gametocytes before induction, female gamete readout, read-out: Female IC50
[7] = Plasmodium falciparum, PfDGFA at 2µM, average of replicates, read-out: Average inhibition male (%)
[8] = Plasmodium falciparum, PfDGFA at 2µM, replicate R1, read-out: % inhibition male (individual replicates) R1
[9] = Plasmodium falciparum, PfDGFA at 2µM, replicate R2, read-out: % inhibition male (individual replicates) R2
[10] = Plasmodium falciparum, PfDGFA at 2µM, replicate R3, read-out: % inhibition male (individual replicates) R3
[11] = Plasmodium falciparum, PfDGFA at 2µM, replicate R4, read-out: % inhibition male (individual replicates) R4
[12] = Plasmodium falciparum, PfDGFA, 24 h incubation with gametocytes before induction, exflagellation readout, read-out: Male IC50
[13] = Plasmodium falciparum, PfDGFA at 2µM, average of replicates, read-out: Average inhibition female (%)
[14] = Plasmodium falciparum, PfDGFA at 2µM, replicate R1, read-out: % inhibition female (individual replicates) R1
[15] = Plasmodium falciparum, PfDGFA at 2µM, replicate R2, read-out: % inhibition female (individual replicates) R2
[16] = Plasmodium falciparum, PfDGFA at 2µM, replicate R3, read-out: % inhibition female (individual replicates) R3
[17] = Plasmodium falciparum, PfDGFA at 2µM, replicate R4, read-out: % inhibition female (individual replicates) R4
[18] = Plasmodium falciparum, PfDGFA, 24 h incubation with gametocytes before induction, female gamete readout, read-out: Female IC50
[19] = this study, read-out: Pf DGFA IC50 MALE
[20] = this study, read-out: Pf DGFA IC50 FEM

SMILES	Selectivity Ratio M [1]	Average inhibition male (%) [1, 4] [%]	% inhibition male (individual replicates) R1 ([1]; PfDGFA at 2µM, replicate R1) [%]	% inhibition male (individual replicates) R3 ([1]; PfDGFA at 2µM, replicate R3) [%]	% inhibition male (individual replicates) R4 ([1]; PfDGFA at 2µM, replicate R4) [%]	IC50 [1, 5] [µM]	HitlevelM ([1]; 2µM)	Selectivity ratio F [2]	Average inhibition female (%) [2, 4] [%]	% inhibition female (individual replicates) R1 ([2]; PfDGFA at 2µM, replicate R1) [%]	% inhibition female (individual replicates) R3 ([2]; PfDGFA at 2µM, replicate R3) [%]	% inhibition female (individual replicates) R4 ([2]; PfDGFA at 2µM, replicate R4) [%]	IC50 [2, 6] [µM]	HitlevelF ([2]; 2µM)	Tox50 [3] [µM]	further results
CC(C)Oc1ccc2ccccc2c1CNCCCCCCNCc1c(OC(C)C)ccc2ccccc12.CS(=O)(=O)O [TCMDC-137965]	1.91	73.8	86.0	74.0	91.3	1.69	3	1.26	48.8	46.4	51.5	48.5	2.56	1	3.22	
CCN(CC)CCOc1ccc(C(O)(C#CC(O)(c2ccc(OCCN(CC)CC)cc2)c2ccc([N+](=O)[O-])cc2)c2ccc([N+](=O)[O-])cc2)cc1 (centres unmarked) [TCMDC-137201]	2.26	85.9	82.3	94.6	93.0	1.54	4	1.17	55.9	46.7	67.0	64.5	2.99	2	3.49	
CN1CCC(NCc2ccc(-c3cnc(NCc4ccccc4)nc3)cc2)CC1.O=C(O)C(F)(F)F [TCMDC-134120]	11.62						4	1.69						1	11.1	inhibition at 2 µM [1, 7]: 86.5%; inhibition at 2 µM [1, 8]: 83.5%; inhibition at 2 µM [1, 9]: 87.5%; inhibition at 2 µM [1, 10]: 86.1%; inhibition at 2 µM [1, 11]: 88.9%; IC50 [1, 12]: 0.96 µM; inhibition at 2 µM [2, 13]: 24.9%; inhibition at 2 µM [2, 14]: 24.7%; inhibition at 2 µM [2, 15]: 16.8%; inhibition at 2 µM [2, 16]: -0.09%; inhibition at 2 µM [2, 17]: 58.4%; IC50 [2, 18]: 6.57 µM
FC(F)(F)c1cccc(NC(=S)NN=Cc2ccccn2)c1 [TC06]																Cytotox ratio Pf Male [1]: 142.9; IC50 [1, 19]: 0.7 µM; Cytotox ratio Pf Female [2]: 142.9; IC50 [2, 20]: 0.7 µM; DGFA Tox50 HepG2 ([3]; HepG2 value reported with the DGFA screen): 100 µM; Mean TOX [3]: 100.00 µM
Cc1sc2ncnc(Sc3nnc(N)s3)c2c1C [TCMDC-124542]	46.96						3	89.35						4	66.05	inhibition at 2 µM [1, 7]: 69.3%; inhibition at 2 µM [1, 8]: 92.1%; inhibition at 2 µM [1, 9]: 95.8%; inhibition at 2 µM [1, 10]: 87%; inhibition at 2 µM [1, 11]: 2.3%; IC50 [1, 12]: 1.41 µM; inhibition at 2 µM [2, 13]: 86.8%; inhibition at 2 µM [2, 14]: 95.8%; inhibition at 2 µM [2, 15]: 96.9%; inhibition at 2 µM [2, 16]: 102%; inhibition at 2 µM [2, 17]: 52.6%; IC50 [2, 18]: 0.74 µM
CCn1c(-c2nonc2N)nc2c(-c3ccccc3)ncc(OCCCNCCCN3CCOCC3)c21.O=C(O)C(F)(F)F [TC62]																Cytotox ratio Pf Male [1]: 11.8; IC50 [1, 19]: 1.37 µM; Cytotox ratio Pf Female [2]: 2.5; IC50 [2, 20]: 6.49 µM; Mean TOX [3]: 16.12 µM
COc1ccc2nc(-c3cc(-c4ccc(NC(=O)C(C)C)cc4)cnc3N)[nH]c2c1 [TCMDC-135322]	19.53						4	0.84						0	8.38	inhibition at 2 µM [1, 7]: 72%; inhibition at 2 µM [1, 8]: 76.6%; inhibition at 2 µM [1, 9]: 80.3%; inhibition at 2 µM [1, 10]: 78.9%; inhibition at 2 µM [1, 11]: 52.3%; IC50 [1, 12]: 0.43 µM; inhibition at 2 µM [2, 13]: -9%; inhibition at 2 µM [2, 14]: -9.8%; inhibition at 2 µM [2, 15]: -5.2%; inhibition at 2 µM [2, 16]: -4.1%; inhibition at 2 µM [2, 17]: -17%; IC50 [2, 18]: > 10 µM
CN(CCCCN)Cc1ccc(-c2ccc(Cl)cc2)cc1 [TCMDC-140123]	4.36	72.2	73.4	55.2	83.6	1.53	4	1.81	20.6	26.7	14.8	10.1	3.7	0	6.69	
CC(C#N)Cc1ccc(-c2cnc(N)c3cc(-c4ccnc(N)n4)ccc23)cc1 (centres unmarked) [TCMDC-134547]	7.45	85.1	91.7	80.2	74.9	0.32	4	0.24	0.03	9.4	-8.0	0.7		0	2.39	
CCCOc1ccc2ccccc2c1CNCCCCCCNCc1c(OCCC)ccc2ccccc12.CS(=O)(=O)O [TCMDC-137966]	1.77	79.0	79.2	56.4	86.2	1.94	4	1.2	25.2	28.6	7.7	20.1	2.86	0	3.43	
COc1cc2ccccc2c(OC)c1CNCCCCCCNCc1c(OC)cc2ccccc2c1OC.CS(=O)(=O)O [TCMDC-137843]	2.16	82.6	82.1	58.2	98.9	1.66	4	0.88	38.4	31.9	18.8	37.8	4.09	1	3.59	
Cl.O=S(=O)(Nc1cc2c(cc1OCCCN1CCCCC1)CCNCC2)c1ccc(-c2ccc(Cl)cc2)cc1 [TCMDC-141753]	5.89					1.22		1.62					4.42		7.17	Average inhibition male (%) ([1]; 2µM, average of replicates): 98.2%; % inhibition male (individual replicates) R1 ([1]; 2µM, replicate R1): 97.5%; % inhibition male (individual replicates) R3 ([1]; 2µM, replicate R3): 95.7%; % inhibition male (individual replicates) R4 ([1]; 2µM, replicate R4): 101.6%; Average inhibition female (%) ([2]; 2µM, average of replicates): 56.2%; % inhibition female (individual replicates) R1 ([2]; 2µM, replicate R1): 37.1%; % inhibition female (individual replicates) R3 ([2]; 2µM, replicate R3): 44.2%; % inhibition female (individual replicates) R4 ([2]; 2µM, replicate R4): 65.5%
Clc1ccc(/N=C(/NCCCCCCCN/C(=N\c2ccc(Cl)cc2)Nc2ccc(Cl)cc2)Nc2ccc(Cl)cc2)cc1 [TCMDC-137529]	2.06					1.12		1.6					1.44		2.3	Average inhibition male (%) ([1]; 2µM, average of replicates): 95.0%; % inhibition male (individual replicates) R1 ([1]; 2µM, replicate R1): 95.9%; % inhibition male (individual replicates) R4 ([1]; 2µM, replicate R4): 94.9%; Average inhibition female (%) ([2]; 2µM, average of replicates): 51.0%; % inhibition female (individual replicates) R1 ([2]; 2µM, replicate R1): 61.8%; % inhibition female (individual replicates) R3 ([2]; 2µM, replicate R3): 39.3%; % inhibition female (individual replicates) R4 ([2]; 2µM, replicate R4): 54.5%
